What was measured:
HUVECs = experiment: In-vitro angiogenesis model: network formation in collagen gel matrix; assay type: cell-based; conditions: pulsed with PMA, bFGF and NOC18 (10-9) for 2 hr followed by PMA, bFGF and VEGF-C for 70 hr; AngioQuant; FIG. 3
Source text: FIG. 4 depicts network formation in HUVECs cultured in collagen gel matrix and treated with PMA, bFGF, and VEGF-C for 72 hr (Positive control). […] Image on left of each figure is stained with phalloidin (cytoskeletal Actin-F marker) and the nuclear dye, Hoechst. Image on right depicts network formation (red lines) used by AngioQuant quantification program (Niemiströ et al 2005). Magnification=4×. The number of networks is 48 in FIG. 3, 44 in FIG. 4, 12 in FIG. 5.

Rabbits = experiment: In-vivo angiogenesis rabbit subcutaneous implant studies
Source text: Rabbits were implanted subcutaneously with nitric oxide generating agent dibenzo[e,k]-2,3,8,9-tetramethyl-1,4,7,10-tetraaza-cyclododeca-1,3,7,9-tetraene, cyclen and plain polymer disks.

NCCN(CCN)/[N+]([O-])=N/O [NOC18]
number of networks (HUVECs): 48

CC1=C(C)N=c2ccccc2=NC(C)=C(C)N=c2ccccc2=N1 [dibenzo[e,k]-2,3,8,9-tetramethyl-1,4,7,10-tetraaza-cyclododeca-1,3,7,9-tetraene]
blood vessel formation around disks (Rabbits; explants sectioned and stained with H&E, 20× magnification): increased blood vessel formation
angiogenic activity versus control (Rabbits; subcutaneous polymer disk explants at 28 d and 8 weeks): increased angiogenic activity

Source: US20080241208A1, “Methods, Compositions and Devices For Promoting Anglogenesis” (priority 2005, published 2008)
